What was measured:
[1] = target: human PKR1 (Homo sapiens, UniProt Q8TCW9); experiment: Competition cell-binding assay with ^125I-MIT-1 on CHO-PKR1 cells; details: PC-10 binding IC50 vs PC-7 functional IC50 (33 nM)
[2] = system: CHO-PKR1 cells; experiment: Cell uptake, internalization and efflux of ^18F-PC-10; assay type: cell-based, Chinese hamster
[3] = system: CFA-induced inflamed paw (PKR1-expressing); experiment: Small-animal PET of CFA-induced inflammatory pain model; assay type: in vivo, C57BL/6 mice
[4] = Ex vivo biodistribution in CFA-treated mice; design: species or system C57BL/6 mice; details: 2 h after injection

Sequence of human PKR1 (Q8TCW9 whole entry): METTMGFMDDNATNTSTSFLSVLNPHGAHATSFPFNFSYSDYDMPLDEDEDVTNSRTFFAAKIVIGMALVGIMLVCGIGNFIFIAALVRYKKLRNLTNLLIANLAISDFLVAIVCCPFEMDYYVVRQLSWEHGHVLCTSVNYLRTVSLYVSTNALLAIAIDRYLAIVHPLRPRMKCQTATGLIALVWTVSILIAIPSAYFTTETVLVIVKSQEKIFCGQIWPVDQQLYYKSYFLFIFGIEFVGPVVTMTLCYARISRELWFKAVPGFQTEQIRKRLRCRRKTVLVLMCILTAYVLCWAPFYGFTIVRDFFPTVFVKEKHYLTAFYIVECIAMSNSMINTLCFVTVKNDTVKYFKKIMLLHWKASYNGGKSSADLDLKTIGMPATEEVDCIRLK

Compound	binding affinity to PKR1 lower than functional IC50 of PC-7 [1]	time at which cell uptake reached a plateau ([2]; 37°C)	time at which internalization reached a plateau ([2]; 37°C, stable up to 2 h)	part of observed uptake due to internalization ([2]; acid buffer pH 2.8 wash)	time after medium replacement at which half of the activity was unbound (efflux) ([2]; after 2 h loading)	time at which efflux reached a plateau ([2]; after medium replacement)	decrease of uptake in inflamed paw by blocking ([3]; 1 h after injection, coinjected with excess PC-7)	uptake in control paw ([3]; PET, 2 h after injection)	activity in blood [4]	uptake in bone [4]	uptake in kidneys [4]	uptake in liver [4]	uptake in salivary gland [4]
COc1ccc(Cn2c(NCCNC(=N)NC(=O)c3ccc(F)cc3)nc(=O)n(Cc3ccc(F)cc3)c2=O)cc1 [PC-10, N-(4-fluoro-benzoyl)-N′-{2-[5-(4-fluoro-benzyl)-1-(4-methoxy-benzyl)-4,6-dioxo-1,4,5,6-tetrahydro-[1,3,5]triazin-2-ylamino]-ethyl}-guanidine]	3 fold	–	–	–	–	–	–	–	–	–	–	–	–
COc1ccc(Cn2c(NCCNC(=N)NC(=O)c3ccc([18F])cc3)nc(=O)n(Cc3ccc(F)cc3)c2=O)cc1 [^18F-PC-10, N-(4-^18F-fluoro-benzoyl)-N′-{2-[5-(4-fluoro-benzyl)-1-(4-methoxy-benzyl)-4,6-dioxo-1,4,5,6-tetrahydro-[1,3,5]triazin-2-ylamino]-ethyl}-guanidine]	–	0.5 h	0.5 h	Approximately half	≤ 15 min	1 h	approximately 70%	0.13 ± 0.01 %ID/g	0.22 ± 0.05 %ID/g	0.69 ± 0.12 %ID/g	5.26 ± 1.06 %ID/g	3.80 ± 1.14 %ID/g	3.05 ± 1.10 %ID/g

Source: paper PMC3629974 (Journal of nuclear medicine : official publication, Society …, 2011)
